{"source": "patent US8318950B2", "about": "“N-acyl amino acid derivatives, a method for the preparation thereof, a pharmaceutical composition and use thereof as anti-allergic, anti-inflammatory and hypolipidemic agents” (Otkrytoe Aktsionernoe Obschestvo-Otechestvennye Lekarstva, priority 2005, dated 2012)", "key": {"[1]": {"system": "allergic rhinitis in guinea pigs", "assay": "Model of allergic rhinitis in guinea pigs (nasal wash-off cytology)", "format": "in vivo, guinea pig", "details": "0.1% solution, inhalations daily for 6 days", "experimental": "The model of allergic rhinitis in guinea pigs was used.\nGuinea pigs were immunized according to the certain scheme for 1.5-2 months (Hutson P. A., Church M. K. et al. 1988): the animals were first immunized by intraperitoneal administration of ovalbumin at dose 10 mg/kg at 7-day interval (twice), then ovalbumin solution was inhaled to the guinea pigs using the Pari nebulizer at increasing concentration beginning from 0.1% and reaching 1% at 4-day intervals between inhalations. The last ovalbumin dose was administered into the nasal passages using a micropipette. 24 hours post the last ovalbumin administration nasal washing was collected (through a system of special tubes) and changes in nasal mucosa was assessed using a complex of histological and cytological methods. The compounds tested (0.1% solution) were daily administered in the form of inhalations using nebulizing device for 6 days; at day 6 of administration, antigen (OA) challenge was performed. Nasal wash-off was obtained 24 hours post challenge."}, "[2]": {"system": "allergic pneumonitis in guinea pigs", "assay": "Model of allergic pneumonitis in guinea pigs (broncho-alveolar wash-off cytology)", "format": "in vivo, guinea pig", "details": "0.1% solution, inhalations daily for 6 days", "experimental": "The model of allergic pneumonitis in guinea pigs was used.\nImmunization of the animals was similar to that described in Example 7.\n24 hours post the last ovalbumin administration broncho-alveolar wash-off was collected (through a cannula inserted into the trachea), and changes in bronchial mucosa was assessed using a complex of histological and cytological methods.\nThe compounds tested (0.1% solution) were daily administered in the form of inhalations using a nebulizing device for 6 days; at day 6 of administration, antigen (OA) challenge was performed.\nBroncho-alveolar wash-off was obtained in rats and guinea pigs under hexenal anesthesia by double washing the lungs through the trachea with 10 ml normal saline. Viability of cells was determined in the test with tryptane blue. Absolute number of cells in 1 ml (cytosis) was determined in the broncho-alveolar wash-off liquid (BAW) using the Goryaev's chamber. In the smears of the BAW liquid precipitate obtained using centrifugation at 200 g for 10 minutes and then stained according to Romanovskcy-Gimza, endopulmonary cytogram was calculated (in percent) [Avtsyn A. P., Lukomskij G. I., Romanova L. K. et al. Endopul'monal'naya cytogramma.//Sov. Med. 1982. No 7. pp. 8-14]."}, "[3]": {"system": "hypercholesterolemia in Wistar rats", "assay": "Model of hypercholesterolemia in rats (oral cholesterol loading)", "format": "in vivo, rat", "experimental": "The study was carried out on male Wistar rats weighing 200±20 g. Hyperlipidemia was induced by oral administration of cholesterol loading, oily cholesterol suspension:\nolive oil (Acorsa, Spain)—5 ml/kg weigh of animals;\ncholesterol (Sigma, USA)—1 g/kg weight;\nsodium cholate (Sigma, USA)—100 mg/kg weight.\nAs a reference preparation, the preparation from the group of statines “Mevacor” (Lovastatine) manufactured by the firm Merck Sharp & Dohn was used at dose 40 mg/kg. Cholesterol suspension was administered daily in the morning for 10 days. The compounds tested (at dose 500 μg/kg) and the reference preparation (at dose 40 mg/kg) were administered to the animals togester with cholesterol suspension for 10 days. All the animals received a standard briquetted forage.\nThe animals were divided into the following groups:\n“Control”—intact animals (n=5);\n“Cholesterol”—rats that orally received cholesterol loading (n=10);\n“Lovastatine”—rats that orally received cholesterol loading and Lovastatine (n=10);\n“Compound IV”—rats that orally received cholesterol loading and the tested compound IV (n=10).\nBlood was sampled at days 5, 8 and 10 of the experiment.\nStatistical processing of the hypolipidemic action data of the tested substances was carried out with regard to the “Cholesterol” group (Table 13).\nExperimental groups included:\n1) “Cholesterol”—rats orally administered with oily cholesterol suspension for 10 days;\n2) “Compound IV”—rats orally administered with oily cholesterol suspension and the tested compound N;\n3) “Compound IV—1Na”—rats orally administered with oily cholesterol suspension and the tested mono-sodium salt of compound N;\n4) “Compound IV—2Na”—rats orally administered with oily cholesterol suspension and the tested di-sodium salt of compound N;\n5) “Compound V—1Na”—rats orally administered with oily cholesterol suspension and the tested mono-sodium salt of the compound V;\n6) “Compound III—1Na”—rats orally administered with oily cholesterol suspension and the tested mono-sodium salt of the compound III;\n7) “Compound II—1Na”—rats orally administered with oily cholesterol suspension and the tested mono-sodium salt of the compound II;\n8) “Sim”—rats orally administered with oily cholesterol suspension and Simvastatine;\n9) control—intact rats before beginning the test.\nAt day 10 of the test blood samples were taken following decapitation of the animals. The animals fasted for 12 hours prior to decapitation.\nBlood serum total cholesterol, triglycerides and high density lipoprotein cholesterol (HDLC) were measured. Low and very low density lipoprotein cholesterol was calculated by the difference between total cholesterol and HDL cholesterol.\nBlood serum total cholesterol and triglycerides were determined using the enzymatic methods.\nCholesterol level in high density lipoproteins (α-LP) was determined using the precipitation method of LDL and VLDL with phosphotungstic acid and magnesium ions.\nData in the tables are presented as a mean value±standard error. Significance of differences between the groups “cholesterol” and “preparation.” was assessed by the two-sampled Student's t-test."}, "[4]": {"system": "endogenous hypercholesterolemia in guinea pigs", "assay": "Model of endogenous hypercholesterolemia in guinea pigs (fat loading)", "format": "in vivo, guinea pig", "parameters": "Serum total cholesterol / Serum total triglyceride levels: unit not given here", "details": "for Serum total cholesterol / Serum total triglyceride levels: fat loading + compound 500 μg/kg orally", "experimental": "The study was carried out on male guinea pigs (Aguti line) weighing 304±25 g. The experiment lasted 31 days. The control group included 6 guinea pigs (intact animals). The compounds studied were administered from day 1 of the experiment (from day 1 of administering fat loading).\nThe animals of experimental groups received orally for 31 days a compound studied and fat loading. The compound studied at doses indicated below was administered in the form of an aqueous solution (0.5 ml per an animal); fat loading (a mixture of porcine fat and preliminary heated corn oil at 4:1 ratio by volume, at the rate of 5 ml/kg weight 0.5 h post administering the substance studied.\n1) “control”—intact animals;\n2) “fat”—animals that received fat loading only\n3) “compound IV”—animals that received fat loading+compound IV at dose 500 μg/kg body weight;\n4) “compound V”—animals that received fat loading+compound V at dose 500 μg/kg body weight.\nStatistical processing was carried out using a mono-factorial analysis of variance."}, "[5]": {"details": "day 5 of the experiment (Table 15)"}, "[6]": {"details": "day 8 of the experiment (Table 16)"}, "[7]": {"details": "day 10 of the experiment (Table 17)"}, "[8]": {"details": "dose 500 μg/kg, vs Cholesterol group"}, "[9]": {"details": "oral 10 days with cholesterol loading, tested compound 500 μg/kg, reference 40 mg/kg (Table 13)"}, "[10]": {"details": "day 31, blood serum, 500 μg/kg orally (Table 24)"}, "[11]": {"details": "day 31, blood serum, 500 μg/kg orally (Table 25)"}}}
{"smiles": "O=C(O)CCCC(=O)N[C@@H](Cc1c[nH]cn1)C(=O)O", "note": "[Compound IV, N^α-glutaryl-L-histidine]", "values": [{"measurement": "Absolute number of Macrophags in nasal wash-off", "setting": "[1]", "value": "6.1 ± 0.75", "unit": "in 1 μl"}, {"measurement": "Absolute number of Neutrophils in nasal wash-off", "setting": "[1]", "value": "3.1 ± 1.02", "unit": "in 1 μl"}, {"measurement": "Citogram of nasal wash-off: Lymphocytes", "setting": "[1]", "value": "5.7 ± 1.54", "unit": "%"}, {"measurement": "Cytosis (absolute number of cells in 1 μl) in nasal wash-off", "setting": "[1]; wash-off 24 hours post challenge", "value": "43.7 ± 6.65", "unit": "°* cells in 1 μl"}, {"measurement": "Absolute number of Macrophags in broncho-alveolar wash-off", "setting": "[2]", "value": "640.1 ± 57.98", "unit": "in 1 μl"}, {"measurement": "Cytosis (absolute number of cells in 1 μl) in broncho-alveolar wash-off", "setting": "[2]", "value": "1331.3 ± 277.4", "unit": "cells in 1 μl"}, {"measurement": "Total cholesterol, HDL", "setting": "[3]; [5]", "value": "35.8 ± 1.2", "unit": "mg/100 ml"}, {"measurement": "Total cholesterol, LDL + VLDL", "setting": "[3]; [5]", "value": "48.5 ± 4.5", "unit": "mg/100 ml"}, {"measurement": "Triglycerides, Serum", "setting": "[3]; [5]", "value": "120.6 ± 8.9", "unit": "mg/100 ml"}, {"measurement": "Total cholesterol, Serum", "setting": "[3]; day 5 of the experiment (Table 15), oral with oily cholesterol suspension", "value": "84.2 ± 3.9", "unit": "mg/100 ml"}, {"measurement": "Total cholesterol, HDL", "setting": "[3]; [6]", "value": "35.9 ± 1.2", "unit": "mg/100 ml"}, {"measurement": "Total cholesterol, LDL + VLDL", "setting": "[3]; [6]", "value": "67.3 ± 8.7", "unit": "mg/100 ml"}, {"measurement": "Total cholesterol, Serum", "setting": "[3]; [6]", "value": "103.3 ± 8.1", "unit": "mg/100 ml"}, {"measurement": "Triglycerides, Serum", "setting": "[3]; [6]", "value": "154.2 ± 11.4", "unit": "mg/100 ml"}, {"measurement": "Total cholesterol, HDL", "setting": "[3]; [7]", "value": "36.5 ± 0.9", "unit": "mg/100 ml"}, {"measurement": "Total cholesterol, LDL + VLDL", "setting": "[3]; [7]", "value": "58.7 ± 5.3", "unit": "mg/100 ml"}, {"measurement": "Total cholesterol, Serum", "setting": "[3]; [7]", "value": "95.2 ± 5.4", "unit": "mg/100 ml"}, {"measurement": "Triglycerides, Serum", "setting": "[3]; [7]", "value": "143.3 ± 8.9", "unit": "mg/100 ml"}, {"measurement": "lowering LDL cholesterol", "setting": "[3]; [8]", "value": 29.8, "unit": "%"}, {"measurement": "lowering hepatic cholesterol", "setting": "[3]; [8]", "value": 22.7, "unit": "%"}, {"measurement": "lowering hepatic triglycerides", "setting": "[3]; [8]", "value": 19, "unit": "%"}, {"measurement": "lowering serum total cholesterol", "setting": "[3]; [8]", "value": 19.5, "unit": "%"}, {"measurement": "Total cholesterol, CHDL", "setting": "[3]; [9]", "value": "50.5 ± 1.3", "unit": "mg/100 ml"}, {"measurement": "Total cholesterol, CLLD + CLVLD", "setting": "[3]; [9]", "value": "46.1 ± 0.9", "unit": "mg/100 ml"}, {"measurement": "Total cholesterol, Liver", "setting": "[3]; [9]", "value": "2.78 ± 0.28 mg/g of tissue"}, {"measurement": "Total cholesterol, Serum", "setting": "[3]; [9]", "value": "96.6 ± 5.7", "unit": "mg/100 ml"}, {"measurement": "Triglycerids, Liver", "setting": "[3]; [9]", "value": "5.53 ± 0.19 mg/g of tissue"}, {"measurement": "Triglycerids, Serum", "setting": "[3]; [9]", "value": "95.1 ± 7.9", "unit": "mg/100 ml"}, {"measurement": "Serum total cholesterol", "setting": "[4]; Day 28", "value": "55.5 ± 6.3"}, {"measurement": "Serum total triglyceride levels", "setting": "[4]; Day 28", "value": "66.8 ± 6.7"}, {"measurement": "Serum total cholesterol", "setting": "[4]; Day 31", "value": "49.2 ± 3.9"}, {"measurement": "Serum total triglyceride levels", "setting": "[4]; Day 31", "value": "69.0 ± 13.4"}, {"measurement": "lowered LDL cholesterol", "setting": "[4]; by day 31 of the experiment", "value": 37.7, "unit": "%"}, {"measurement": "lowered total cholesterol level", "setting": "[4]; by day 31 of the experiment", "value": 33.9, "unit": "%"}, {"measurement": "Cholesterol, LDL", "setting": "[4]; [10]", "value": "42.1 ± 3.5", "unit": "mg/100 ml"}, {"measurement": "Cholesterol, Total", "setting": "[4]; [10]", "value": "49.2 ± 3.9", "unit": "mg/100 ml"}, {"measurement": "Cholesterol, VLDL", "setting": "[4]; [10]", "value": "3 ± 0.71", "unit": "mg/100 ml"}, {"measurement": "Triglycerides, LDL", "setting": "[4]; [11]", "value": "29.6 ± 2.4", "unit": "mg/100 ml"}, {"measurement": "Triglycerides, Total", "setting": "[4]; [11]", "value": "69 ± 13.4", "unit": "mg/100 ml"}, {"measurement": "Triglycerides, VLDL", "setting": "[4]; [11]", "value": "33.2 ± 12.3", "unit": "mg/100 ml"}]}
